Experiment: xn = mol fraction of the nth substance listed

CC(=O)CCC(=O)O + O=C(O)[C@@H]1CCCN1
100 kPa, x1 = 0.667
Settings | viscosity [mPa·s]
303.15 K | 955
308.15 K | 636.1
313.15 K | 432.5
318.15 K | 301
323.15 K | 219.6

CC(=O)C=C(C)C + CCCCCOC(C)=O
298.15 K, 101 kPa
Settings | viscosity [mPa·s]
x1 = 0.11 | 0.7593
x1 = 0.167 | 0.7461

C1C[C@@H]2[C@H]3CC[C@H](C3)[C@@H]2C1 + CC(C)CC(C)(C)C
viscosity [mPa·s], 100 kPa
Settings | x1 = 0.1 | x1 = 0.2002 | x1 = 0.3008 | x1 = 0.4003 | x1 = 0.5008 | x1 = 0.5997 | x1 = 0.6982 | x1 = 0.8002 | x1 = 0.9012
293.15 K | 0.593 | 0.682 | 0.795 | 0.929 | 1.102 | 1.316 | 1.582 | 1.959 | 2.405
298.15 K | 0.563 | 0.643 | 0.745 | 0.868 | 1.026 | 1.219 | 1.457 | 1.799 | 2.194
303.15 K | 0.532 | 0.608 | 0.701 | 0.813 | 0.958 | 1.132 | 1.347 | 1.657 | 2.008
308.15 K | 0.506 | 0.574 | 0.661 | 0.764 | 0.896 | 1.056 | 1.251 | 1.534 | 1.844
313.15 K | 0.483 | 0.546 | 0.626 | 0.719 | 0.842 | 0.987 | 1.164 | 1.42 | 1.701

CC(=O)CCC(=O)O + CC[N+](CC)(CC)CC.[Br-]
101 kPa, x1 = 0.75
Settings | viscosity [mPa·s]
293.15 K | 149
303.15 K | 76.98
313.15 K | 42.42
323.15 K | 28.81

Nc1cccc(Cl)c1 + O=C1CCCCC1
viscosity [mPa·s], 100 kPa
Settings | x1 = 0.0814 | x1 = 0.1705 | x1 = 0.2826 | x1 = 0.3886 | x1 = 0.4996 | x1 = 0.5895 | x1 = 0.6899 | x1 = 0.7755 | x1 = 0.8882
303.15 K | 1.954 | 2.11 | 2.323 | 2.542 | 2.793 | 3.014 | 3.28 | 3.525 | 3.875
308.15 K | 1.779 | 1.92 | 2.112 | 2.31 | 2.535 | 2.733 | 2.971 | 3.191 | 3.503
313.15 K | 1.589 | 1.716 | 1.888 | 2.065 | 2.266 | 2.442 | 2.655 | 2.85 | 3.128
318.15 K | 1.382 | 1.495 | 1.648 | 1.805 | 1.984 | 2.141 | 2.33 | 2.505 | 2.753

CCC(=O)O + CC#N
101 kPa
Settings | viscosity [mPa·s]
298.15 K, x1 = 0.0727 | 0.3871
298.15 K, x1 = 0.1499 | 0.4326
298.15 K, x1 = 0.2322 | 0.49
298.15 K, x1 = 0.3199 | 0.5588
298.15 K, x1 = 0.4136 | 0.6378
298.15 K, x1 = 0.5141 | 0.7247
298.15 K, x1 = 0.6221 | 0.8156
298.15 K, x1 = 0.7383 | 0.9048
298.15 K, x1 = 0.864 | 0.9833
298.35 K, x1 = 0.00118 | 0.3554
298.36 K, x1 = 0.000675 | 0.3524
298.37 K, x1 = 0.001631 | 0.3536
299.33 K, x1 = 0.002851 | 0.3563
301.03 K, x1 = 0.00118 | 0.3451
301.05 K, x1 = 0.000675 | 0.3437
301.96 K, x1 = 0.002851 | 0.3511
302.04 K, x1 = 0.001631 | 0.3472
303.03 K, x1 = 0.00118 | 0.338
303.04 K, x1 = 0.000675 | 0.3378
304.04 K, x1 = 0.001631 | 0.3356
304.09 K, x1 = 0.002851 | 0.3401
305.01 K, x1 = 0.00118 | 0.3316
305.04 K, x1 = 0.000675 | 0.3319
305.99 K, x1 = 0.002851 | 0.3324
306.1 K, x1 = 0.001631 | 0.3288
308.03 K, x1 = 0.00118 | 0.3228
308.04 K, x1 = 0.000675 | 0.3223
308.15 K, x1 = 0.0727 | 0.3411
308.15 K, x1 = 0.1499 | 0.3841
308.15 K, x1 = 0.2322 | 0.4373
308.15 K, x1 = 0.3199 | 0.4999
308.15 K, x1 = 0.4136 | 0.5703
308.15 K, x1 = 0.5141 | 0.646
308.15 K, x1 = 0.6221 | 0.7227
308.15 K, x1 = 0.7383 | 0.7943
308.15 K, x1 = 0.864 | 0.8513
309 K, x1 = 0.002851 | 0.3236
309.06 K, x1 = 0.001631 | 0.3198
311.01 K, x1 = 0.000675 | 0.3134
311.01 K, x1 = 0.00118 | 0.3139
311.96 K, x1 = 0.002851 | 0.3161
312.06 K, x1 = 0.001631 | 0.3112
318.15 K, x1 = 0.0727 | 0.3007
318.15 K, x1 = 0.1499 | 0.345
318.15 K, x1 = 0.2322 | 0.3948
318.15 K, x1 = 0.3199 | 0.4493
318.15 K, x1 = 0.4136 | 0.5074
318.15 K, x1 = 0.5141 | 0.567
318.15 K, x1 = 0.6221 | 0.6251
318.15 K, x1 = 0.7383 | 0.6772
318.15 K, x1 = 0.864 | 0.7168

Nc1cccc(Cl)c1 + NCCO
Settings | viscosity [mPa·s]
308.15 K, 100 kPa, x1 = 0.3619 | 8.885

OC[C@@H](O)[C@@H](O)CO + OC[C@@H](O)[C@H](O)[C@@H](O)CO
101 kPa, x1 = 0.36
Settings | viscosity [mPa·s]
313 K | 31330
318 K | 18000
323 K | 10110

O=[N+]([O-])[O-].O=[N+]([O-])[O-].[Ni+2] + O
Settings | viscosity [mPa·s]
322.46 K, 100 kPa, x1 = 0.03889 | 1.225
